This is an account of results in ChEMBL document CHEMBL1201862, “PubChem BioAssay data set” (2004).

Some test systems named below: LOX IMVI; HCC 2998; DU-145; NCI-H460; HOP-62; T47D; SF-539; EKVX; ACHN; A549; NCI-H23; MDA-MB-231; NCI-H522; SNB-75; NCI-H226; NCI/ADR-RES; MDA-N; BT-549; CCRF-CEM; OVCAR-8.
Test in all cases: DTP human tumour cell line panel, 48 h

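1) Cells in 96-well plates. 2) Compound, 48 h, 5 concentrations. 3) Linear interpolation between surrounding doses. 4) Unreached endpoint = highest concentration. Abbreviation: GI50, concentration required for 50% inhibition of growth.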 The source made the active and inactive calls. No stated cut-off is given here; in the data, active = GI50 up to about 1.1 µM and inactive = higher.

Broadly, the GI50 is the concentration that inhibits growth by half. On to `NC(=O)NC(=O)Nc1ccc(Br)cc1`, for which the GI50 in the assay on LOX IMVI is 8.45 µM (inactive); in the assay with HCC 2998, > 21.9 µM (inactive); with DU-145, > 100 µM (inactive); in the assay with NCI-H460, > 8.61 µM (inactive); with HOP-62, > 15.8 µM (inactive); in the assay with T47D, 6.03 µM (inactive). The GI50 with SF-539 is > 17.3 µM (inactive); with EKVX, 14.7 µM (inactive); in the assay with ACHN, > 9.62 µM (inactive); in the assay on A549, > 16.6 µM (inactive); with NCI-H23, > 14.5 µM (inactive); in the assay on MDA-MB-231 it was > 16.6 µM (inactive). Besides, the GI50 in the assay on NCI-H522 is > 25.9 µM (inactive); in the assay with SNB-75, 3.19 µM (inactive); in the assay on NCI-H226 it was 21.5 µM (inactive); with NCI/ADR-RES, > 30.8 µM (inactive); in the assay with MDA-N, 50.9 µM (inactive); with BT-549 it was > 20 µM (inactive). Besides, the results for the GI50 with CCRF-CEM and in the assay on OVCAR-8 were > 4.65 µM (inactive) and > 13.7 µM (inactive), respectively.

Take `COC(=O)/C(=N\Nc1nnc(C)n1N)C(C#N)c1ccccc1` (stereo not given): the GI50 in the assay with LOX IMVI is > 64.9 µM (inactive); in the assay with HCC 2998, > 100 µM (inactive); with DU-145, > 100 µM (inactive); in the assay with NCI-H460, > 100 µM (inactive); in the assay with HOP-62, > 100 µM (inactive); in the assay with T47D, > 100 µM (inactive). The GI50 is 64.1 µM (inactive) in the assay on SF-539; > 100 µM (inactive) in the assay with EKVX; 27.8 µM (inactive) in the assay with ACHN; > 92.7 µM (inactive) with A549; 24.1 µM (inactive) in the assay with NCI-H23; > 100 µM (inactive) in the assay with MDA-MB-231. The GI50 in the assay on NCI-H522 was > 100 µM (inactive); in the assay with SNB-75 it was > 64.9 µM (inactive); with NCI-H226, > 100 µM (inactive); in the assay with NCI/ADR-RES, > 100 µM (inactive); in the assay on MDA-N, 23.4 µM (inactive); in the assay on BT-549, > 100 µM (inactive). The GI50 in the assay on CCRF-CEM was > 100 µM (inactive); in the assay with OVCAR-8, > 73.3 µM (inactive).

As to `CC(=O)c1ccc2c(c1)CC1(C2)Cc2ccccc2C1=O` (stereo not given), the GI50 in the assay on LOX IMVI was 36.1 µM (inactive); in the assay on HCC 2998, 40.6 µM (inactive); with DU-145, > 100 µM (inactive); in the assay on NCI-H460 it was 62.1 µM (inactive); with HOP-62 it was > 100 µM (inactive); with T47D it was 25.6 µM (inactive). Also, the GI50 in the assay on SF-539 is > 100 µM (inactive); in the assay on EKVX, 24.2 µM (inactive); in the assay with ACHN, 54 µM (inactive); in the assay with A549 it was 37.8 µM (inactive); in the assay with NCI-H23, 78.9 µM (inactive); in the assay on MDA-MB-231, 57.3 µM (inactive). The GI50 is 21.5 µM (inactive) in the assay on NCI-H522; 34.5 µM (inactive) with SNB-75; 85.3 µM (inactive) in the assay with NCI-H226; 16 µM (inactive) with NCI/ADR-RES; 45.1 µM (inactive) with MDA-N; 43.4 µM (inactive) in the assay with BT-549. The GI50 in the assay on CCRF-CEM is 29.5 µM (inactive); in the assay on OVCAR-8 it was 37.9 µM (inactive).

For the molecule `S=c1ssc2c3ssc(=S)c3n(Cc3ccccc3)c12`, the GI50 with LOX IMVI was 43.2 µM (inactive); with HCC 2998, > 100 µM (inactive); with DU-145 it was 54 µM (inactive); in the assay with NCI-H460, > 100 µM (inactive); in the assay with HOP-62, > 100 µM (inactive); with T47D, 22.3 µM (inactive). The GI50 in the assay on SF-539 was 21.3 µM (inactive); in the assay with EKVX, 69.7 µM (inactive); in the assay on ACHN it was > 100 µM (inactive); with A549, > 100 µM (inactive); with NCI-H23, > 100 µM (inactive); in the assay with MDA-MB-231 it was > 100 µM (inactive). Besides, the GI50 in the assay on NCI-H522 is 83.2 µM (inactive); in the assay on SNB-75, 98.4 µM (inactive); in the assay on NCI-H226 it was > 100 µM (inactive); in the assay on NCI/ADR-RES it was > 100 µM (inactive); in the assay on MDA-N, > 100 µM (inactive); in the assay with BT-549, > 100 µM (inactive). Also, the GI50 in the assay on CCRF-CEM was 17.2 µM (inactive); with OVCAR-8, 74.8 µM (inactive).

In the case of `CC(C)CC1NC(=O)C(C(C)C)NC(=O)CC(C)COC(=O)C(CC(C)C)N(C)C(=O)C(C(C)C)NC(=O)C(C(C)C)OC1=O` (stereo not given), the GI50 in the assay with LOX IMVI is 23.5 µM (inactive); in the assay with HCC 2998 it was > 50 µM (inactive); with DU-145, > 50 µM (inactive); in the assay with NCI-H460 it was > 50 µM (inactive); with HOP-62, 15.2 µM (inactive); in the assay on T47D, > 50 µM (inactive). In addition, the GI50 with SF-539 is 8.28 µM (inactive); with EKVX, > 50 µM (inactive); in the assay with ACHN, > 50 µM (inactive); in the assay with A549, > 50 µM (inactive); with NCI-H23 it was > 50 µM (inactive); in the assay with MDA-MB-231, 19.7 µM (inactive). The GI50 is > 50 µM (inactive) with NCI-H522; 10.9 µM (inactive) in the assay on SNB-75; 13 µM (inactive) in the assay on NCI-H226; > 50 µM (inactive) in the assay with NCI/ADR-RES; > 50 µM (inactive) in the assay with MDA-N; > 50 µM (inactive) with BT-549. In addition, the figures for the GI50 in the assay with CCRF-CEM and in the assay on OVCAR-8 were 15.2 µM (inactive) and 34.7 µM (inactive), respectively.

For the molecule `CNC(=O)N(C1=NCC(C)S1)c1ccc(C)c(C)c1` (stereo not given), the GI50 in the assay on LOX IMVI is 5.09 µM (inactive); in the assay with HCC 2998, 4.28 µM (inactive); in the assay on DU-145, 7.5 µM (inactive); in the assay with NCI-H460, 3.36 µM (inactive); with HOP-62, 5.98 µM (inactive); in the assay with T47D, 7.33 µM (inactive). Also, the GI50 was 2.62 µM (inactive) in the assay with SF-539; 6.55 µM (inactive) in the assay on EKVX; 12 µM (inactive) in the assay with ACHN; 6.52 µM (inactive) in the assay with A549; 7.08 µM (inactive) in the assay with NCI-H23; 12.1 µM (inactive) in the assay with MDA-MB-231. The GI50 was 4.82 µM (inactive) with NCI-H522; 1.31 µM (inactive) with SNB-75; 4.6 µM (inactive) in the assay with NCI-H226; 3.36 µM (inactive) in the assay with NCI/ADR-RES; 0.443 µM (active) in the assay on MDA-N; 27.3 µM (inactive) in the assay on BT-549. Besides, the GI50 is 2.39 µM (inactive) with CCRF-CEM and 4.74 µM (inactive) with OVCAR-8.

Consider `Nc1nc(Cl)cc(NCCC2(CO)CCC2)n1`, for which the GI50 in the assay on LOX IMVI, in the assay on HCC 2998, in the assay on DU-145, in the assay on NCI-H460, with HOP-62 and with T47D was > 100 µM (inactive) throughout. The GI50 in the assay with SF-539 was > 100 µM (inactive); with EKVX, 4.73 µM (inactive); in the assay with ACHN it was > 100 µM (inactive); with A549, > 100 µM (inactive); in the assay with NCI-H23, > 100 µM (inactive); in the assay on MDA-MB-231, > 100 µM (inactive). Besides, the GI50 with NCI-H522, in the assay with SNB-75, in the assay with NCI-H226, with NCI/ADR-RES, in the assay with MDA-N and in the assay with BT-549 was > 100 µM (inactive) each time. For the same molecule, the GI50 in the assay on CCRF-CEM and with OVCAR-8 was > 100 µM (inactive) in each case.

Take `O=C1C2CC[C@@H]3C(=O)C(Cl)(Cl)[C@@H]3CCC2C1(Cl)Cl` (stereo not given in full): the GI50 is 44 µM (inactive) with LOX IMVI; > 100 µM (inactive) in the assay on HCC 2998; > 100 µM (inactive) in the assay with DU-145; > 100 µM (inactive) in the assay with NCI-H460; 3.24 µM (inactive) with HOP-62; > 100 µM (inactive) in the assay on T47D. For the same molecule, the GI50 was > 44.4 µM (inactive) in the assay with SF-539; > 100 µM (inactive) in the assay on EKVX; > 100 µM (inactive) with ACHN; > 100 µM (inactive) in the assay on A549; > 100 µM (inactive) in the assay on NCI-H23; > 100 µM (inactive) in the assay on MDA-MB-231. For the same molecule, the GI50 in the assay with NCI-H522 was > 58.7 µM (inactive); in the assay with SNB-75, > 100 µM (inactive); in the assay on NCI-H226 it was > 100 µM (inactive); in the assay with NCI/ADR-RES it was > 100 µM (inactive); with MDA-N, > 72.4 µM (inactive); in the assay on BT-549, > 100 µM (inactive). Further, the results for the GI50 with CCRF-CEM and with OVCAR-8 were 23.3 µM (inactive) and > 100 µM (inactive), respectively.

Consider `O=C(c1ccccc1)N1CCN(C(=S)N(C(=O)c2ccccc2)c2ccccc2)C1=S`, for which the GI50 is 1.9 µM (inactive) in the assay with LOX IMVI; 6.5 µM (inactive) in the assay with HCC 2998; 3.01 µM (inactive) with DU-145; 17.5 µM (inactive) in the assay with NCI-H460; 10.3 µM (inactive) with HOP-62; 4.68 µM (inactive) with T47D. For the same molecule, the GI50 is 2.62 µM (inactive) with SF-539; 5.92 µM (inactive) in the assay on EKVX; 2.79 µM (inactive) in the assay on ACHN; 5.26 µM (inactive) in the assay with A549; 3.05 µM (inactive) in the assay on NCI-H23; 10.3 µM (inactive) in the assay with MDA-MB-231. Besides, the GI50 in the assay with NCI-H522 was 1.87 µM (inactive); in the assay on SNB-75 it was 2.16 µM (inactive); in the assay with NCI-H226, 10.7 µM (inactive); in the assay on NCI/ADR-RES, 5.16 µM (inactive); in the assay with MDA-N it was 4.18 µM (inactive); with BT-549 it was 3.85 µM (inactive). Also, the GI50 was 2.56 µM (inactive) in the assay on CCRF-CEM and 3.13 µM (inactive) in the assay on OVCAR-8.

For `Nc1nn2c(C(Br)Br)cc(C(Br)Br)nc2c1[N+](=O)[O-]`, the GI50 was 0.269 µM (active) in the assay with LOX IMVI; 2.17 µM (inactive) with HCC 2998; 1.68 µM (inactive) with DU-145; 2.41 µM (inactive) in the assay with NCI-H460; 1.88 µM (inactive) in the assay with HOP-62; 0.667 µM (active) in the assay on T47D. Further, the GI50 with SF-539 was 0.785 µM (active); with EKVX, 2.37 µM (inactive); with ACHN it was 0.861 µM (active); with A549 it was 2.43 µM (inactive); in the assay on NCI-H23 it was 1.98 µM (inactive); with MDA-MB-231, 1.6 µM (inactive). For the same molecule, the GI50 in the assay on NCI-H522 is 0.37 µM (active); in the assay with SNB-75, 1.08 µM (active); with NCI-H226, 2.21 µM (inactive); with NCI/ADR-RES it was 2.78 µM (inactive); in the assay with MDA-N, 1.34 µM (inactive); in the assay on BT-549, 0.766 µM (active). In addition, the GI50 with CCRF-CEM is 0.161 µM (active); in the assay with OVCAR-8, 0.962 µM (active).
